Laboratory results from patent publication US7803930B2, “Antisense modulation of apolipoprotein B-expression” (Isis Pharmaceuticals, Inc., priority 2002, dated 2010).
In the oligonucleotide strings, read from the 5' end, every base follows the letter of its sugar. An asterisk marks phosphorothioate; unmarked linkages are phosphodiester. Other units and linkages are bracketed, terminal groups are in braces. A string of capitals states the bases alone. e = 2'-O-(2-methoxyethyl) (MOE); [5mC] = 5-methylcytosine; d = 2'-deoxy (DNA)

Legend:
[1] = test system: mouse apolipoprotein B mRNA; assay: Inhibition of mouse apolipoprotein B mRNA levels in primary mouse hepatocytes, real-time PCR; type: cell-based
Outline: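 Primary CD-1 mouse hepatocytes transfected at 80% confluency with oligonucleotide plus 3.75 μg/mL LIPOFECTIN for 4-7 h, harvested 16-24 h after treatment. ApoB mRNA measured by real-time quantitative PCR against a standard curve of untreated-control mRNA, giving percent inhibition; GAPDH primers/probe also used.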

[2] = High fat fed mice (Example 65): ALT and AST levels; type: in vivo, mouse; details: 10, 25 and 50 mg/kg
Protocol: Male C57Bl/6 mice were divided into the following groups, consisting of 5 animals each: (1) mice on a lean diet, injected with saline (lean control); (2) mice on a high fat diet; (3) mice on a high fat diet injected with 50 mg/kg of the control oligonucleotide 141923 (SEQ ID NO: 858); (4) mice on a high fat diet given 20 mg/kg atorvastatin calcium (Lipitor®, Pfizer Inc.); (5) mice on a high fat diet injected with 10, 25 or 50 mg/kg ISIS 147764 (SEQ ID NO: 109). Saline and oligonucleotide treatments were administered intraperitoneally twice weekly for 6 weeks. Atorvastatin was administered daily for 6 weeks. At study termination, liver samples were isolated from each animal and RNA was isolated for Northern blot qualitative assessment, DNA microarray and quantitative real-time PCR. Northern blot assessment and quantitative real-time PCR were performed as described by other examples herein.
Mouse apolipoprotein B mRNA and serum cholesterol levels, measured as described herein, were evaluated to confirm antisense inhibition by ISIS 147764 and ISIS 147483. […] The 50 mg/kg dose of ISIS 147483 increased ALT and AST levels.

[3] = test system: mouse apolipoprotein B protein; assay: High fat fed C57BL/6 mice, 6 week timecourse: liver apolipoprotein B protein, immunoblot; type: in vivo; details: 5, 25, 50 mg/kg, six weeks
Source text: Liver protein samples collected at the end of the treatment period were subjected to immunoblot analysis using an antibody directed to mouse apolipoprotein B protein (Gladstone Institute, San Francisco, Calif.).

[4] = Transgenic mice dosing study (Example 52): serum ALT and AST levels; type: in vivo, mouse; details: 10 or 25 mg/kg

Substance: 147764 (eG*eT*e[5mC]*e[5mC]*e[5mC]*dT*dG*dA*dA*dG*dA*dT*dG*dT*d[5mC]*eA*eA*eT*eG*e[5mC]) [compound 147764]
- % INHIB ([1]; Table 3, 150 nM, averages from two experiments): 97%
- Percent Inhibition 50 nM ([1]; Table 4, 50 nM): 48%
- Percent Inhibition 150 nM ([1]; Table 4, 150 nM): 84%
- Percent Inhibition 300 nM ([1]; Table 4, 300 nM): 90%

Substance: GTCCCTGAAGATGTCAATGC (2'-MOE gapmer, further chemistry not given here) [ISIS 147764]
- ALT or AST levels [2]: did not significantly elevate
- apolipoprotein B protein expression in liver (immunoblot) [3]: decreases apolipoprotein B protein expression in liver in a dose-dependent manner

Substance: ISIS 301012: SEQ ID NO: 247, antisense oligonucleotide targeted to human apolipoprotein B (antisense GCCTCAGTCTGCTTCGCACC; chemistry not given here)
- AST and ALT levels in serum [4]: increased, yet did not exceed normal levels
